According to patent US8952024B2, “Herbicidal pyrimidone derivatives” (E I du Pont de Nemours and Company, priority 2009, dated 2015):

Tests used:
Test in all cases: Test B pre-/postemergence plant response
Type in all cases: in vivo
[1] = system: Italian ryegrass (Lolium multiflorum)
Summary of the method: (§1)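 Plants treated either at seeding (loam/sand soil) or postemergence at 2 to 18 cm height, using a surfactant-containing non-phytotoxic solvent formulation. Evaluation was visual after 13 to 15 days, 0 to 100 scale relative to controls.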

[2] = system: Surinam grass (Brachiaria decumbens)
Summary of the method: as §1

[3] = system: bermudagrass (Cynodon dactylon)
Summary of the method: as §1

[4] = system: blackgrass (Alopecurus myosuroides)
Summary of the method: as §1

[5] = system: corn (Zea mays)
Summary of the method: as §1

[6] = system: downy bromegrass (Bromus tectorum)
Summary of the method: as §1

[7] = system: giant foxtail (Setaria faberii)
Summary of the method: as §1

[8] = system: goosegrass (Eleusine indica)
Summary of the method: as §1

[9] = system: green foxtail (Setaria viridis)
Summary of the method: as §1

[10] = system: johnsongrass (Sorghum halepense)
Summary of the method: as §1

[11] = system: kochia (Kochia scoparia); details: Postemergence
Summary of the method: as §1

[12] = system: lambsquarters (Chenopodium album)
Summary of the method: as §1

[13] = system: large crabgrass (Digitaria sanguinalis)
Summary of the method: as §1

[14] = system: ragweed (common ragweed, Ambrosia elatior)
Summary of the method: as §1

[15] = system: velvetleaf (Abutilon theophrasti)
Summary of the method: as §1

[16] = system: woolly cupgrass (Eriochloa villosa)
Summary of the method: as §1

[17] = system: yellow nutsedge (Cyperus esculentus)
Summary of the method: as §1

[18] = Postemergence, 31 g ai/ha, 0 to 100 scale (0 no effect, 100 complete control)
[19] = Postemergence, 250 g ai/ha, scale 0 to 100 (0 no effect, 100 complete control), 13 to 15 days
[20] = Postemergence, 62 g ai/ha, scale 0 to 100 (0 no effect, 100 complete control)
[21] = Preemergence, 31 g ai/ha, scale 0 to 100 (0 no effect, 100 complete control)
[22] = Preemergence, 62 g ai/ha, scale 0 to 100, 0 no effect, 100 complete control
[23] = Preemergence, 125 g ai/ha, scale 0 to 100, 0 no effect, 100 complete control
[24] = Preemergence, 250 g ai/ha, 0 to 100 scale
[25] = Postemergence, 125 g ai/ha, scale 0 to 100 (0 no effect, 100 complete control)

CCc1cccc(-n2c(-c3ccccc3)ncc(C(=O)C3=C(O)CCCC3=O)c2=O)c1 [Compound 220]
Plant response rating, Ryegrass, Italian [1, 18]: 5 | Plant response rating, Ryegrass, Italian [1, 19]: 60 | Plant response rating, Ryegrass, Italian [1, 20]: 5 | Plant response rating, Ryegrass, Italian [1, 21]: 0 | Plant response rating, Ryegrass, Italian [1, 22]: 0 | Plant response rating, Ryegrass, Italian [1, 23]: 0 | Ryegrass, Italian plant response rating [1, 24]: 0 | Plant response rating, Surinam Grass [2, 18]: 50 | Plant response rating, Surinam Grass [2, 19]: 75 | Plant response rating, Surinam Grass [2, 20]: 60 | Plant response rating, Surinam Grass [2, 21]: 10 | Plant response rating, Surinam Grass [2, 22]: 20 | Plant response rating, Surinam Grass [2, 23]: 45 | Surinam Grass plant response rating [2, 24]: 65 | Plant response rating, Bermudagrass [3, 18]: 80 | Plant response rating, Bermudagrass [3, 25]: 98 | Plant response rating, Bermudagrass [3, 19]: 100 | Plant response rating, Bermudagrass [3, 20]: 95 | Plant response rating, Bermudagrass [3, 21]: 80 | Plant response rating, Bermudagrass [3, 22]: 98 | Plant response rating, Bermudagrass [3, 23]: 98 | Bermudagrass plant response rating ([3]; Preemergence, 250 g ai/ha, 0 to 100 scale, 0 no effect, 100 complete control): 100 | Plant response rating, Blackgrass [4, 18]: 10 | Plant response rating, Blackgrass [4, 25]: 30 | Plant response rating, Blackgrass [4, 19]: 40 | Plant response rating, Blackgrass [4, 20]: 20 | Plant response rating, Blackgrass [4, 21]: 10 | Plant response rating, Blackgrass [4, 22]: 20 | Plant response rating, Blackgrass [4, 23]: 20 | Blackgrass plant response rating [4, 24]: 35 | Plant response rating, Corn [5, 18]: 25 | Plant response rating, Corn [5, 25]: 55 | Plant response rating, Corn [5, 19]: 75 | Plant response rating, Corn [5, 20]: 50 | Plant response rating, Corn [5, 21]: 0 | Plant response rating, Corn [5, 22]: 0 | Plant response rating, Corn [5, 23]: 0 | Corn plant response rating [5, 24]: 0 | Plant response rating, Bromegrass, Downy [6, 18]: 10 | Plant response rating, Bromegrass, Downy [6, 25]: 15 | Plant response rating, Bromegrass, Downy [6, 19]: 30 | Plant response rating, Bromegrass, Downy [6, 20]: 10 | Plant response rating, Bromegrass, Downy [6, 21]: 0 | Plant response rating, Bromegrass, Downy [6, 22]: 0 | Plant response rating, Bromegrass, Downy [6, 23]: 0 | Bromegrass, Downy plant response rating [6, 24]: 5 | Plant response rating, Foxtail, Giant [7, 18]: 30 | Plant response rating, Foxtail, Giant [7, 25]: 55 | Plant response rating, Foxtail, Giant [7, 19]: 95 | Plant response rating, Foxtail, Giant [7, 20]: 50 | Plant response rating, Foxtail, Giant [7, 21]: 0 | Plant response rating, Foxtail, Giant [7, 22]: 0 | Plant response rating, Foxtail, Giant [7, 23]: 0 | Foxtail, Giant plant response rating [7, 24]: 75 | Plant response rating, Goosegrass [8, 18]: 80 | Plant response rating, Goosegrass [8, 25]: 85 | Plant response rating, Goosegrass [8, 19]: 90 | Plant response rating, Goosegrass [8, 20]: 85 | Plant response rating, Goosegrass [8, 21]: 65 | Plant response rating, Goosegrass [8, 22]: 95 | Plant response rating, Goosegrass [8, 23]: 98 | Goosegrass plant response rating [8, 24]: 100 | Plant response rating, Foxtail, Green [9, 18]: 60 | Plant response rating, Foxtail, Green [9, 25]: 80 | Plant response rating, Foxtail, Green [9, 19]: 90 | Plant response rating, Foxtail, Green [9, 20]: 65 | Plant response rating, Foxtail, Green [9, 21]: 80 | Plant response rating, Foxtail, Green [9, 22]: 90 | Foxtail, Green plant response rating [9, 24]: 100 | Plant response rating, Johnsongrass [10, 18]: 60 | Plant response rating, Johnsongrass [10, 25]: 80 | Plant response rating, Johnsongrass [10, 19]: 90 | Plant response rating, Johnsongrass [10, 20]: 65 | Plant response rating, Johnsongrass [10, 21]: 0 | Plant response rating, Johnsongrass [10, 22]: 0 | Plant response rating, Johnsongrass [10, 23]: 0 | Johnsongrass plant response rating [10, 24]: 80 | Plant response rating, Kochia ([11]; 31 g ai/ha, 0 to 100 scale (0 no effect, 100 complete control)): 45 | Plant response rating, Kochia ([11]; 125 g ai/ha, scale 0 to 100 (0 no effect, 100 complete control)): 75 | Plant response rating, Kochia ([11]; 250 g ai/ha, scale 0 to 100 (0 no effect, 100 complete control), 13 to 15 days): 100 | Plant response rating, Kochia ([11]; 62 g ai/ha, scale 0 to 100 (0 no effect, 100 complete control)): 65 | Plant response rating, Lambsquarters [12, 18]: 100 | Plant response rating, Lambsquarters [12, 25]: 100 | Plant response rating, Lambsquarters [12, 19]: 100 | Plant response rating, Lambsquarters [12, 20]: 100 | Plant response rating, Lambsquarters [12, 21]: 100 | Plant response rating, Lambsquarters [12, 22]: 100 | Plant response rating, Lambsquarters [12, 23]: 100 | Lambsquarters plant response rating [12, 24]: 100 | Plant response rating, Crabgrass, Large [13, 18]: 70 | Plant response rating, Crabgrass, Large [13, 25]: 85 | Plant response rating, Crabgrass, Large [13, 19]: 90 | Plant response rating, Crabgrass, Large [13, 20]: 75 | Plant response rating, Crabgrass, Large [13, 21]: 0 | Plant response rating, Crabgrass, Large [13, 22]: 75 | Plant response rating, Crabgrass, Large [13, 23]: 80 | Crabgrass, Large plant response rating [13, 24]: 100 | Plant response rating, Ragweed [14, 18]: 90 | Plant response rating, Ragweed [14, 19]: 98 | Plant response rating, Ragweed [14, 20]: 95 | Plant response rating, Ragweed [14, 21]: 15 | Plant response rating, Ragweed [14, 22]: 60 | Plant response rating, Ragweed [14, 23]: 80 | Ragweed plant response rating [14, 24]: 95 | Plant response rating, Velvetleaf [15, 18]: 80 | Plant response rating, Velvetleaf [15, 19]: 100 | Plant response rating, Velvetleaf [15, 20]: 90 | Plant response rating, Velvetleaf [15, 21]: 45 | Plant response rating, Velvetleaf [15, 22]: 70 | Plant response rating, Velvetleaf [15, 23]: 90 | Velvetleaf plant response rating [15, 24]: 100 | Plant response rating, Cupgrass, Woolly [16, 18]: 60 | Plant response rating, Cupgrass, Woolly [16, 25]: 65 | Plant response rating, Cupgrass, Woolly [16, 19]: 65 | Plant response rating, Cupgrass, Woolly [16, 20]: 60 | Plant response rating, Cupgrass, Woolly [16, 21]: 0 | Plant response rating, Cupgrass, Woolly [16, 22]: 0 | Plant response rating, Cupgrass, Woolly [16, 23]: 10 | Cupgrass, Woolly plant response rating [16, 24]: 25 | Plant response rating, Nutsedge, Yellow [17, 18]: 10 | Plant response rating, Nutsedge, Yellow [17, 25]: 25 | Plant response rating, Nutsedge, Yellow [17, 19]: 55 | Plant response rating, Nutsedge, Yellow [17, 20]: 25 | Plant response rating, Nutsedge, Yellow [17, 21]: 0 | Plant response rating, Nutsedge, Yellow [17, 22]: 0 | Plant response rating, Nutsedge, Yellow [17, 23]: 60 | Nutsedge, Yellow plant response rating [17, 24]: 90
